# Reference: patent US6495588B2, “Scytonemin and methods of using thereof” (The Regents of the University of California, priority 2000, dated 2002)
# How the values were obtained:
# Jurkat T cells = experiment: Apoptosis assay (TUNEL, flow cytometry); assay type: cell-based; conditions: 3 μM, 24 hours
# Description: To determine the mechanism behind the ability of SCY to inhibit cell proliferation, about 2×10^5 Jurkat T cells/ml were treated with vehicle (negative control), 3 μM SCY, or 3 μM camptothecin (positive control) a (0.1% DMSO[final]) and incubated at 37° C., 5% CO2 for 24 hours. As a positive control, camptothecin, a DNA topoisomerase inhibitor, was used because of its ability to arrest Jurkat cells at the G2/M phase of the cell cycle and induce the cells to undergo apoptosis. The cells were fixed in 1% paraformaldehyde, washed once with PBS, and stored in 70% EtOH at−20° C. Apoptosis was measured using the Promega Apoptosis Detection System (Promega, Madison, Wis.) an adapted TUNEL staining method.
# The cells were washed two times with 5 ml PBS 2% FBS, then transferred to a microcentrifuge tube in 1 ml PBS, 0.2% Triton×100, 5 mg/ml BSA and incubated on ice for 5 minutes. Samples were spun, PBS solution removed, then resuspended in 80 μl equilibration buffer from Promega kit and incubated at room temperature for 10 minutes. Then the samples were spun and the equilibration buffer removed. A nucleotide mix comprising 45 μl equilibration buffer, 5 μl nucleotide mix, 1 μl Tdt enzyme per sample, was used to resuspend each sample in the dark. The cells were incubated in the dark at 37° C. for 1 hour. The reaction was terminated by the addition of 20 mM EDTA. The samples were washed twice with 1 ml RNAse A and a small aliquot, about 50 μl, was viewed under a microscope. Cells were stained with fluoroscein and then counterstained with propidium iodide and analyzed for DNA content and fragmentation using a Becton-Dickinson FacsSort (Becton-Dickinson, San Jose, Calif.).
# [1] = tested on: PMA-induced cell proliferation in mouse ear epidermis; experiment: Mouse ear cell proliferation assay (IUdR incorporation, PCNA histology); assay type: in vivo; conditions: +PMA 4 μg/ear; scytonemin 1 mg/ear, dexamethasone 0.15 mg/ear
# Description: To determine the efficacy of scytonemin as an anti-proliferative agent in vivo, the following assay was conducted. On day one, test compounds were delivered in 10 μl 20% DMSO, 80% acetone and applied to both the inner and outer pinnae of left ears (20 μl total) of male, Swiss Webster mice (Taconic Farms, Germantown, N.Y.). The right ears received only vehicle. One hour post test compound application, 4 μg/ear PMA (Sigma, St. Louis, Mo.) in 10 μl acetone was applied to the inner pinnae of each left ear and 10 μl acetone was applied to each right ear. Four hours post test compound application, the each test compound was again applied in the same manner. On day two, the test compounds were applied twice with a four-hour interval between each application. On day three, the test compounds and PMA were applied as they had been on day one.
# One hour after the final test compound applications, each mouse was injected with 0.6 ml of a solution containing the thymidine analogue, 5-iodo-I^125-2′-deoxyuridine (IUdR) (2 μCi-I^125/mouse) and, to inhibit the endogenous deoxythymidilic acid synthetase, fluorodeoxyuridine (FUdR) ([…]). This IUdR/FUdR solution was made up in RPMI 1640 media. Eighteen hours post injection, the mice were euthanized via CO2 inhalation, the ears were excised and soaked individually in a 70% EtOH solution overnight.
# IUdR incorporation was then measured using a Beckman Gamma counter, Model 5500B. […] Therefore, scytoneman compounds may be used to reduce, prevent, inhibit, modulate, or attenuate cell proliferation.
# Additionally, immunostaining with Proliferating Cell Nuclear Antigen (PCNA) was used as a proliferation marker to identify proliferating cells. PCNA is a cofactor for DNAt […]. Expression levels of PCNA fluctuate over the cell cycle. […] Low expression levels of PCNA indicate non-cycling cells.
# Histological analysis was used to determine the effect of scytonemin on the thickness of the epidermal layer of skin, the mitotic index of cells in the epidermal layer, the number of cells in the epidermis, and the amount of immune cell infiltration. PCNA antibodies were used to detect the presence of PCNA in cells and a peroxidase-Ni/DAB development system was used to stain PCNA-positive cells black and hematoxlin was used as a nuclear blue counterstain using conventional methods.
Structure (SMILES),cells induced to undergo apoptosis (Jurkat T cells),effect on cell cycle progression (Jurkat T cells),cells actively proliferating (PCNA staining) [1]
"CC[C@@]1(O)C(=O)OCc2c1cc1n(c2=O)Cc2cc3ccccc3nc2-1 [camptothecin, reference compound]",71%,arrested the cells at G2/M phase,
"C[C@@H]1C[C@H]2[C@@H]3CCC4=CC(=O)C=C[C@]4(C)[C@@]3(F)[C@@H](O)C[C@]2(C)[C@@]1(O)C(=O)CO [dexamethasone, reference compound]",,,about 60%
